This note sets out measurements from PubChem BioAssay AID489035 (Sanford-Burnham Center for Chemical Genomics, 2010).

SMILES strings stand for the structures. The source made the active and inactive calls. How the calls were made is not given here. A value given as a limit tells only on which side of the number the result lay.

The test relates to Jurkat NF-kB reporter, TCR-induced, luciferase luminescence. Description: T-cell NF-kB luciferase reporter inhibition – Jurkat cells, luminescence, dose response (AID 489035). (In general: A reporter such as luciferase makes a cellular process visible.)
Take `CC[C@@]1(O)C(=O)OCc2c1cc1n(c2=O)Cc2cc3c(CN(C)C)c(O)ccc3nc2-1`: the IC50 (in general, the point on the concentration scale where inhibition reaches its midpoint) is 0.2 µM.

For `Cc1ccc2c(c1)sc(-c1ccc(N(C)C)cc1)[n+]2C`, the IC50 was > 80 µM (inactive).

Consider `CCOC(=O)c1[nH]c2c(c1C)C(=O)CC(c1ccc(F)cc1)C2` (stereo not drawn), for which the IC50 was > 80 µM (inactive).

For `COc1ccc(CCN2C(=O)C3C4C=CC(C3C2=O)C2C(=O)N(CCc3ccc(OC)c(OC)c3)C(=O)C42)cc1OC` (stereo not drawn), the IC50 was > 80 µM (inactive).

In the case of `CCCCCCCn1c2c(c(=N)c3ccccc31)CCC2`, the IC50 is 12.3 µM.

Consider `CCO[C@H]1OC(C(=O)NCc2nc3ccccc3[nH]2)=C[C@@H](C2CC2)[C@@H]1CCCO`, for which the IC50 is > 80 µM (inactive).

As for `Cc1c(C(=O)OCc2ccccc2)[nH]c2c1C(=O)CC(c1ccco1)C2` (stereo not drawn), the IC50 is > 80 µM (inactive).

`C=C(C=O)C[C@@H]1C[C@H](O)C2OC3C[C@]4(C)OC5/C=C\CC6OC7C(CC=CCC6OC5CCCC4OC3CC2O1)OC1CC2OC3CC(=O)OC3C[C@@H](C)C[C@@]2(C)OC1C[C@@H]7C` (stereo partly drawn): the IC50 was 1.39 µM.

For `CC(C)c1oc(=O)cc2c1[C@@H](O)[C@H]1OC(=O)[C@@]3(C)C[C@@H](O)[C@@H](O)[C@@]2(C)C13` (stereo partly drawn), the IC50 is 1.08 µM.

`CCN(CC)c1ccc2nc3ccccc3[n+](CC)c2c1`: the IC50 is 12.4 µM.

As for `Brc1ccc2c(c1)C(C1=NCCN1)c1ccccc1CS2` (stereo not drawn), the IC50 was > 80 µM (inactive).

In the case of `CCCC(=O)NC(c1ccc(C)cc1)c1ccc2cccnc2c1O` (stereo not drawn), the IC50 is 8.63 µM.

For the compound `COc1cccc(N2CCN(C(=O)c3cn(Cc4ccccc4)nc3-c3cccnc3)CC2)c1`, the IC50 is > 80 µM (inactive).

Regarding `O=C(Nc1ccc(Cc2ccncc2)cc1)c1ccc(S(=O)(=O)N2CCCC2)cc1`, the IC50 is 77.4 µM (inactive).

With `Oc1ccc(Nc2nc3ccccc3nc2Nc2ccc(O)cc2)cc1`, the IC50 is 2.09 µM.

With `O=C(N/N=C/c1c(O)ccc2ccccc12)c1ccc(Br)o1`, the IC50 was 60.7 µM (inactive).

In the case of `COc1cc(NCCCCCCCN)c2ncccc2c1`, the IC50 is 21 µM (inactive).

Regarding `COc1ccccc1N1CCN(C(=O)c2cc(=O)c3cc(C)cc(C)c3o2)CC1`, the IC50 was 2.79 µM.

As to `COc1ccc(S(=O)(=O)Nc2cccc(-c3ccc4nncn4n3)c2)cc1F`, the IC50 was > 80 µM (inactive).

Consider `COc1cccc(/C=N/Nc2ncnc3scc(-c4ccccc4)c23)c1O`, for which the IC50 is 1.26 µM.

For `CCCCCCCCCCCCCCCC[n+]1ccc(C(N)=O)cc1`, the IC50 was 1.49 µM.

Turning to `O=C(NCCOc1ccccc1)c1cc([N+](=O)[O-])ccc1N1CCOCC1`, the IC50 is > 80 µM (inactive).

As to `Cc1ccc(NC(=O)c2cc3ccccc3oc2=O)cc1S(=O)(=O)N(C)C`, the IC50 is 0.98 µM.

Regarding `CCOc1ccccc1NC(=O)CN(c1ccc(OC)cc1)S(=O)(=O)c1c(C)noc1C`, the IC50 is > 80 µM (inactive).

`Cc1cc(C(C)(C)C)cc(C)c1C[n+]1ccc2ccccc2c1`: the IC50 is 58.9 µM (inactive).

With `COc1ccc2nc(C)cc(N/N=C/c3ccc(F)cc3)c2c1`, the IC50 is 2.35 µM.

Take `CCC(=O)NC(c1cccs1)c1ccc2cccnc2c1O` (stereo not drawn): the IC50 is 60.4 µM (inactive).

Consider `COc1ccc(C(=O)N2CCN(c3ccc([N+](=O)[O-])c(NCCc4ccc(OC)c(OC)c4)c3)CC2)cc1`, for which the IC50 was > 80 µM (inactive).

Regarding `COc1ccc(C(=O)N(C)Cc2cnn(Cc3ccccc3)c2)cc1S(=O)(=O)N1CCOCC1`, the IC50 is > 80 µM (inactive).

Take `CCCC1=Nc2cc(C(=O)NCCCOCC)ccc2Sc2ccccc21`: the IC50 is 24 µM (inactive).

Regarding `COc1cc2c(c(OC)c1OC)-c1ccc(OC)c(=O)cc1[C@@H](N(C)CC#CCO)CC2`, the IC50 is > 80 µM (inactive).

In the case of `CC(C)CC[n+]1ccccc1/C=C/c1ccc(N(C)C)cc1`, the IC50 is > 80 µM (inactive).

Consider `Cc1cnc(NC(=O)c2ccc3c(c2)OCCO3)s1`, for which the IC50 was 1 µM.

Take `CCCCCCCOc1ccc(OC(=O)c2ccncc2)cc1`: the IC50 was > 80 µM (inactive).

Consider `C[C@@H]1O[C@@H](O[C@H]2C[C@@H](O)[C@]3(CO)[C@@H]4C(CC[C@]3(O)C2)[C@@]2(O)CC[C@H](C3COC(=O)C3)[C@@]2(C)C[C@H]4O)[C@H](O)[C@H](O)[C@H]1O` (stereo partly drawn), for which the IC50 is 23.3 µM (inactive).

As to `CC(C)Nc1ccc(C(CC(N)=O)NC(=O)Cc2ccc(Br)cc2)cc1[N+](=O)[O-]` (stereo not drawn), the 50% inhibitory concentration (IC50) is 1.71 µM.

`CCCCn1c2c(c(=N)c3c1CCC3)CCC2`: the IC50 was > 80 µM (inactive).

On to `CCOc1cccc(/C=N/Nc2ccc(S(=O)(=O)N(CC)CC)cn2)c1O`, for which the IC50 was 21.8 µM (inactive).

In the case of `Cc1ccsc1/C=N/NC(=O)c1cc(-c2ccncc2)nc2ccccc12`, the IC50 is 35.1 µM (inactive).

Take `CNC[C@H](CC1CCCCC1)NC[C@H](Cc1ccccc1)NCCC12CC3CC(CC(C3)C1)C2`: the IC50 is 2.42 µM.

On to `CC(C)(C)C(=O)Nc1ccc(NC(=O)c2ccco2)nc1`, for which the IC50 was 0.81 µM.

In the case of `Cc1c(C(=O)OCC(C)C)[nH]c2c1C(=O)CC(c1cccs1)C2` (stereo not drawn), the IC50 is > 80 µM (inactive).

`O=C(c1cn(Cc2ccccc2)nc1-c1ccccc1)N1CCN(c2ccccn2)CC1`: the IC50 was > 80 µM (inactive).

For the compound `O=C1CC(c2cc(F)ccc2F)c2cc3c(cc2N1)CCC3` (stereo not drawn), the IC50 was > 80 µM (inactive).

As for `CC(=O)c1sc2c(c1OC(=O)c1ccc(Cl)cc1Cl)c(=O)n(-c1ccccc1)c(=S)n2-c1ccccc1`, the IC50 is 1.35 µM.

Take `O=C(Nc1ccc(Cl)c(S(=O)(=O)N2CCOCC2)c1)c1ccc(OCC2CCCO2)cc1` (stereo not drawn): the IC50 was 18.3 µM.

For the compound `CCCCCCCCn1c2c(c(=N)c3c1CCC3)CCCC2`, the IC50 is 4.63 µM.

In the case of `COc1ccc2c(c1)/C(=C/c1cnc[nH]1)C(=O)N2`, the IC50 was 6.51 µM.

As for `CCOc1cc(C(=O)N/N=C/C(Br)=C/c2ccccc2)cc(OCC)c1OCC`, the IC50 was > 80 µM (inactive).

In the case of `N=c1ccn(CC(=O)c2ccc(-c3ccccc3)cc2)cc1`, the IC50 is 54.5 µM (inactive).

For `COc1ccc(CNS(=O)(=O)c2cc(-c3cc(C)no3)ccc2C(C)C)cc1`, the IC50 is 64.6 µM (inactive).

Turning to `COc1ccc(NC(=O)/C(Cl)=C(/Cl)S(=O)Cc2ccccc2)cn1` (stereo not drawn), the IC50 is 0.26 µM.

Turning to `COc1cccc(N2CCN(C(=O)c3ccc(CS(=O)c4ccccc4Cl)o3)CC2)c1` (stereo not drawn), the IC50 was > 80 µM (inactive).

As to `O=C(Sc1cccc2cccnc12)c1ccc(F)cc1`, the IC50 is 0.99 µM.

As to `CC(=O)NC(c1ccc2ccccc2c1)c1ccc2cccnc2c1O` (stereo not drawn), the IC50 is 7.22 µM.

As to `COc1ccccc1CNS(=O)(=O)c1ccc(-c2cnc(C3CC3)o2)cc1`, the IC50 is 31.3 µM (inactive).

`Cc1csc2ncnc(NC3CCN(Cc4ccccc4)CC3)c12`: the IC50 was > 80 µM (inactive).

`CCN(CC)S(=O)(=O)c1cc(NC(=O)CNc2cccc(S(=O)(=O)N3CCCC3)c2)ccc1C`: the IC50 is > 80 µM (inactive).

With `Cc1ccc(C(=O)Nc2ncc(Cc3ccc(SC(F)F)cc3)s2)cc1`, the IC50 is > 80 µM (inactive).

In the case of `COc1cc(C2C(C#N)=C(N)Oc3cc4c(cc32)OCO4)cc(OC)c1OC` (stereo not drawn), the IC50 was 34.1 µM (inactive).

Take `COc1cccc(CN(C)C(=O)c2cc(COc3ccc4ncccc4c3)on2)c1`: the IC50 is 12.5 µM.

In the case of `Cc1cccc(N2CCN(C(=O)c3c(-c4ccccc4Cl)noc3C)CC2)c1C`, the IC50 is 78.6 µM (inactive).

`O=C(N/N=C\c1c(O)ccc2ccccc12)c1cncc(Br)c1`: the IC50 is 4.01 µM.

On to `CCOC(=O)c1[nH]c(C)c(C(=O)c2cc(F)ccc2F)c1C`, for which the IC50 was > 80 µM (inactive).

Turning to `CCOc1ccc2c(c1)OC(c1ccc(OC)cc1)(C(F)(F)F)NC2=O` (stereo not drawn), the IC50 was > 80 µM (inactive).

`COc1ccc(NC(=O)Cn2nnc(-c3ccccc3NS(=O)(=O)c3ccc(OC)cc3)n2)cc1`: the IC50 was > 80 µM (inactive).

As to `Cc1csc2sc(-c3ccnc(SCC(=O)NCc4ccccc4)n3)c(C)c12`, the IC50 is 17 µM.

Consider `COc1ccccc1N=C(C)C1=C(O)CC(c2ccccc2)CC1=O` (stereo not drawn), for which the IC50 is > 80 µM (inactive).

Regarding `COCCn1c(C)cc(C2=NNC(=Nc3ccccc3F)SC2)c1C`, the IC50 was 64.3 µM (inactive).

As to `COc1ccc(CS(=O)(=O)/C(Cl)=C(/Cl)C(=O)Nc2ccc(OC)nc2)cc1`, the IC50 is 0.45 µM.

Regarding `CCCCCOC(=O)c1[nH]c2c(c1C)C(=O)CC(c1ccco1)C2` (stereo not drawn), the IC50 is > 80 µM (inactive).

For the compound `CCOC(=O)c1[nH]c(C=O)c(C(=O)OCC)c1C`, the IC50 was > 80 µM (inactive).

`Cc1cc(NC(=O)CSc2nc3c(sc4ccccc43)c(=O)n2CCCN2CCOCC2)n[nH]1`: the IC50 is > 80 µM (inactive).

For `Cc1ccc(S(=O)(=O)Nc2cccc(-c3ccc4nncn4n3)c2)cc1`, the IC50 is > 80 µM (inactive).

For `CCCCCCCCCCCCCCCC[n+]1ccc(/C=N/O)cc1`, the IC50 was 1.57 µM.

Take `O=C(CSc1nnc(Cn2nnc3ccccc32)o1)N(Cc1ccc(F)cc1)c1ccccc1`: the IC50 is > 80 µM (inactive).

Take `CCOCCCNC(=O)c1cc2c(=O)n3cccc(C)c3nc2n1C`: the IC50 was > 80 µM (inactive).

With `Cn1nc(C(C)(C)C)cc1C(=O)NCc1cc(F)cc2c1OCOC2`, the IC50 is > 80 µM (inactive).

Turning to `Cc1ccc2c(c1)C=CC(C#N)N2C(=O)c1ccccc1` (stereo not drawn), the IC50 is > 80 µM (inactive).

On to `Cc1ccc(NC(=O)C2=C(c3ccccc3)S(=O)(=O)CCS2(=O)=O)cc1`, for which the IC50 is 1.61 µM.

As to `CCSc1nc2ccccc2n1C(=O)/C=C\c1ccc(OC)c(OC)c1`, the IC50 is 2.27 µM.

`CCCC(=O)Nc1nc2ccc(S(=O)(=O)N3CCCCC3)cc2s1`: the IC50 is > 80 µM (inactive).

With `C/C=C(\C)C(=O)N[C@@H](c1ccccc1)[C@@H](O)C(=O)O[C@H]1C[C@@]2(O)[C@@H](OC(=O)c3ccccc3)C3[C@](C)(C(=O)[C@H](OC(C)=O)C(=C1C)C2(C)C)[C@@H](O)C[C@H]1OC[C@@]31OC(C)=O` (stereo partly drawn), the IC50 is under 0.16 µM.
